Data on one compound can be found in PMC5780470, “Copper(I)-binding properties of de-coppering drugs for the treatment of Wilson disease. α-Lipoic acid as a potential anti-copper agent” (Scientific Reports, 2018).

In this test the target is MT2A (MT2, Cu10MT, Cu10MT2) (Oryctolagus cuniculus, UniProt P18055). Put plainly: ESI-MS demetallation of Cu10MT, Hill fit. The test is classed as binding. The note with it: C50 for Cu(I) extraction from 3 uM Cu10MT, not a protein affinity; 10 mM DTT, 20 mM ammonium acetate, pH 7.3, 25 °C; all CuMT-TTM complexes counted; no ternary complexes stated; read-out: C50 (mM) for Cu1Cox17. The source says: ESI-MS demetallation of Cu10MT, Hill fit on MT2A (MT2, Cu10MT, Cu10MT2)
MT2A (MT2, Cu10MT, Cu10MT2), sequence (P18055 whole entry): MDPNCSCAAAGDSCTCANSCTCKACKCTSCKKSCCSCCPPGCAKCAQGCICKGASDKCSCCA

With `CCN(CC)C(=S)S` [DETC, diethyl dithiocarbamate], the IC50 was found to be 0.772 ± 0.087 mM.
